Tests used:
[1] = system: CYP enzymes that metabolise ribociclib in HLM (total metabolism; CYP-selective chemical inhibitors); test: Inhibition of [3H] ribociclib total metabolism in HLM by CYP- and FMO-selective inhibitors; assay type: in vitro ADME; conditions: both, human, human liver microsomes, pH 7.4, probe [3H] ribociclib
[2] = Contribution of metabolites to total pharmacological activity in human; conditions: considering in vitro measurements and in vivo exposure
[3] = Human ADME study: quantitative metabolite profiling in plasma; assay type: in vivo; design: AUC0-48h: concentration or dose not given beside the values
Protocol: A plasma pool across the six healthy volunteers included in the study was prepared at the time points of 1 hour, 3 hours, 24 hours, and 48 hours post dose. For each time point, an equal volume of plasma was taken from each subject and combined. Plasma pool samples were processed by protein precipitation with acetonitrile. The protein pellet that resulted from precipitation with acetonitrile was washed further with additional aliquots of acetonitrile. All acetonitrile washes were combined and evaporated under nitrogen. For the 3‐ and 24‐hour plasma pools, the extraction procedure was slightly modified, including precipitation of the plasma proteins by addition of a 1:1 mixture of acetonitrile:methanol, followed by washing of the protein pellet with the same solvent mixture. All extracts were reconstituted with a solution of 15‐mM ammonium formate and acetonitrile (95:5 v/v). Extraction and reconstitution recoveries were measured in all four plasma samples in order to calculate and overall recovery. Quantitative metabolite profiling in plasma was accomplished using a Shimadzu Prominence high‐performance liquid chromatography (HPLC) system (Shimadzu, Columbia, MD, USA), coupled with fraction collection and analysis of total radioactivity in individual fractions using AMS (as described above). A second injection of each sample, conducted immediately after the first, was used to provide HPLC fractions for metabolite identification. The fractions identified as containing radioactivity from the AMS analysis were analyzed by HPLC coupled with high‐resolution mass spectrometry to identify the metabolites. The HPLC‐MS/MS methodology used is described below.

[4] = Human ADME study: quantitative metabolite profiling in urine and feces; assay type: in vivo; conditions: for Excretion (% of dose), Total: urine plus feces, pooled excreta n=6
Protocol: Average pools across the six subjects were also created by combining equal percentages (of total urine and feces excreted over the time interval) of the individual subject pools. Urine pools were analyzed directly for metabolite profiling (column recovery of a representative sample was measured), whereas feces pools were subjected to extraction. Specifically, to each aliquot of feces homogenate, two volumes of acetonitrile were added. After centrifugation, the pellet was washed further with an additional two volumes of acetonitrile. […] All washes were combined, evaporated under nitrogen, and reconstituted with a solution of 15‐mM ammonium formate (pH 3.5). This feces extract reconstitute was analyzed for metabolite profiling. Combined extraction and reconstitution (overall recovery) and column recovery were measured. […] The HPLC column used was a Phenomenex Kinetex, C18, 250 × 4.6 mm, equipped with a pre‐column of the same type (2.1 × 4.6 mm), which was placed in a column oven at 40°C. […] The HPLC gradient was as follows: initial conditions were 5% mobile phase B for 1 minute, then increased to 20% at 10 minutes post injection where it was held (isocratic) up to 20 minutes. […] The post column flow was directed to the fraction collector operated in a time‐slice mode and containing 96‐well Lumaplates (Perkin Elmer). The plates were dried at room temperature and the radioactivity was measured using a microplate scintillation counter model TopCount NXT (Perkin Elmer) instrument (up to 3 × 100‐minute counting time). […] Metabolites were identified during the same injections using data generated by the high‐resolution mass spectrometer. The molecular ions and key fragments of each drug‐related component were determined. Key fragments for each metabolite were derived from their product ion mass spectra and were used to determine the metabolite structures. Where possible, structural assignments were supported by exact mass measurement, comparison with synthetic standards and/or Hydrogen/Deuterium (H/D) exchange LC‐MS(/MS).

[5] = substrate: CN(C)C(=O)c1cc2cnc(Nc3ccc(N4CCNCC4)cn3)nc2n1C1CCCC1; test: Enzyme kinetics with recombinant CYP3A5 and scaling to HLM; assay type: in vitro ADME, human; conditions: other: recombinant CYP3A5; 37.0 °C
Protocol: (§1) In vitro incubations were carried out in 100‐mM potassium phosphate buffer (pH 7.4) and 5‐mM MgCl2 with a total volume of 200 µL. Substrate and either human liver microsomes (HLM, BD Biosciences, mixed gender pool of n = 50) or recombinant human enzymes (BD Biosciences) were added and pre‐incubated for 3 minutes at 37°C. The reaction was started by addition of a fresh solution of NADPH (1 mmol/L final concentration). The samples were incubated at 37°C with agitation of 500 rpm. For incubations with CYP2A6, CYP2C9, CYP2C18, and CYP4A11, the phosphate buffer was replaced by TRIS buffer (100 mmol/L, pH 7.4) and for flavin‐containing monooxygenases (FMOs), a glycine buffer (50 mM, pH 9.5) was used.
(§2) The enzymatic reaction was stopped and the protein was precipitated by addition of an equal volume of methanol. After 30 min at −80°C, the samples were centrifuged at 30'000 x g for 15 min. The supernatant was withdrawn. Aliquots were analyzed by LSC and the supernatant was diluted with water to obtain a final solution containing less than 20% of the organic solvent. For samples of low substrate concentration, supernatants were evaporated to dryness under nitrogen, then re‐suspended in water containing less than 20% of methanol. Samples were analyzed by HPLC combined with radiodetection.
(§3) The relative contribution of CYP enzymes to oxidative hepatic metabolism was determined using their Clint values multiplied by the unbound fraction in microsomes and their abundances in human liver microsomes. ^15 Among the hepatic P450 enzymes, CYP3A4 contributed predominantly (97%) to metabolism in human liver microsomes (Table 1) with negligible fraction metabolized by CYP1A2 (1.1%), CYP2J2 (0.8%), and CYP3A5 (1.2%).

[6] = substrate: CN(C)C(=O)c1cc2cnc(Nc3ccc(N4CCNCC4)cn3)nc2n1C1CCCC1; test: Enzyme kinetics with recombinant CYP1A2 and scaling to HLM; assay type: in vitro ADME, human; conditions: other: recombinant CYP1A2; 37.0 °C
Protocol: as §1, §2, §3

[7] = human plasma pools n=6, from metabolite patterns

CC(C)(O)c1ccccc1CC[C@@H](SCC1(CC(=O)O)CC1)c1cccc(/C=C/c2ccc3ccc(Cl)cc3n2)c1 [Montelukast]
IC50 [1]: > 2000 nM

CN(C)C(=O)c1cc2cnc(Nc3ccc(N4CCN(O)CC4)cn3)nc2n1C1CCCC1 [M13 (CCI284)]
contribution to total pharmacological activity in human [2]: not to have a relevant contribution to total pharmacological activity | AUC0-48h, % of total [14C]-AUC0-48 [3, 7]: 9.39% | metabolite exposure as % of ribociclib exposure ([3]; human plasma, AUC0-48): 21.6%

CN(C)C(=O)c1cc2cnc(Nc3ccc(N4CCN(S(=O)(=O)O)CC4)cn3)nc2n1C1CCCC1 [M8 (CQM386)]
Excretion (% of dose), Total [4]: < 5.21 % of dose | AUC0-48h [3, 7]: 14.2 nM·h | AUC0-48h, % of total [14C]-AUC0-48 [3, 7]: 0.0297% | Concentration in plasma pool ([3]; human, 1 h post dose, pool n=6, from metabolite patterns): 9.50 nM

CN(CO)C(=O)c1cc2cnc(Nc3ccc(N4CCNCC4)cn3)nc2n1C1CCCC1 [M15]
Excretion (% of dose), Urine ([4]; pooled excreta n=6, from metabolite patterns (radio profiling)): 1.50 % of dose | Excretion (% of dose), Total [4]: 1.50 % of dose | detection in plasma (AMS metabolite profiling) ([3]; human plasma): not observed in plasma

CC[C@]1(C)C[C@@H](OC(=O)CSc2nnc(N)[nH]2)[C@]2(C)[C@H](C)CC[C@]3(CCC(=O)[C@H]32)[C@@H](C)[C@@H]1O [Azamulin]
IC50 [1]: 1050 nM

B1: CYP3A5 (Homo sapiens) (protein)
chain: MDLIPNLAVETWLLLAVSLVLLYLYGTRTHGLFKRLGIPGPTPLPLLGNVLSYRQGLWKFDTECYKKYGKMWGTYEGQLPVLAITDPDVIRTVLVKECYSVFTNRRSLGPVGFMKSAISLAEDEEWKRIRSLLSPTFTSGKLKEMFPIIAQYGDVLVRNLRREAEKGKPVTLKDIFGAYSMDVITGTSFGVNIDSLNNPQDPFVESTKKFLKFGFLDPLFLSIILFPFLTPVFEALNVSLFPKDTINFLSKSVNRMKKSRLNDKQKHRLDFLQLMIDSQNSKETESHKALSDLELAAQSIIFIFAGYETTSSVLSFTLYELATHPDVQQKLQKEIDAVLPNKAPPTYDAVVQMEYLDMVVNETLRLFPVAIRLERTCKKDVEINGVFIPKGSMVVIPTYALHHDPKYWTEPEEFRPERFSKKKDSIDPYIYTPFGTGPRNCIGMRFALMNMKLALIRVLQNFSFKPCKETQIPLKLDTQGLLQPEKPIVLKVDSRDGTLSGE
notes: purchased BD Biosciences
Km [5]: 23.9 µmol/L | kcat [5]: 0.0122 s⁻¹ | kcat/Km [5]: 0.031 µL/min/pmol

B2: CYP1A2 (Homo sapiens) (protein)
chain: MALSQSVPFSATELLLASAIFCLVFWVLKGLRPRVPKGLKSPPEPWGWPLLGHVLTLGKNPHLALSRMSQRYGDVLQIRIGSTPVLVLSRLDTIRQALVRQGDDFKGRPDLYTSTLITDGQSLTFSTDSGPVWAARRRLAQNALNTFSIASDPASSSSCYLEEHVSKEAKALISRLQELMAGPGHFDPYNQVVVSVANVIGAMCFGQHFPESSDEMLSLVKNTHEFVETASSGNPLDFFPILRYLPNPALQRFKAFNQRFLWFLQKTVQEHYQDFDKNSVRDITGALFKHSKKGPRASGNLIPQEKIVNLVNDIFGAGFDTVTTAISWSLMYLVTKPEIQRKIQKELDTVIGRERRPRLSDRPQLPYLEAFILETFRHSSFLPFTIPHSTTRDTTLNGFYIPKKCCVFVNQWQVNHDPELWEDPSEFRPERFLTADGTAINKPLSEKMMLFGMGKRRCIGEVLAKWEIFLFLAILLQQLEFSVPPGVKVDLTPIYGLTMKHARCEHVQARLRFSIN
notes: purchased BD Biosciences
Km [6]: 48 µmol/L | kcat [6]: 0.0185 s⁻¹ | kcat/Km [6]: 0.023 µL/min/pmol
